Experimental data as given in PubChem BioAssay (NCI).
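A five-concentration, 48-hour dose response in 96-well plates underlies each endpoint, interpolated linearly between surrounding concentrations. GI50: concentration for 50% inhibition of growth. At the TGI there is no net growth.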

Assays:
Experiment in all cases: DTP human tumour cell line panel, 48 h
786-0 renal = tested on: 786-0 renal
A498 renal = tested on: A498 renal
A549 NSCLC = tested on: A549 NSCLC
ACHN renal = tested on: ACHN renal
BT-549 breast = tested on: BT-549 breast
CAKI-1 renal = tested on: CAKI-1 renal
CCRF-CEM leukemia = tested on: CCRF-CEM leukemia
COLO 205 colon = tested on: COLO 205 colon
DU-145 prostate = tested on: DU-145 prostate
HCC-2998 colon = tested on: HCC-2998 colon
HCT-116 colon = tested on: HCT-116 colon
HCT-15 colon = tested on: HCT-15 colon
HOP-62 NSCLC = tested on: HOP-62 NSCLC
HOP-92 NSCLC = tested on: HOP-92 NSCLC
HS 578T breast = tested on: HS 578T breast
HT29 colon = tested on: HT29 colon
IGROV1 ovarian = tested on: IGROV1 ovarian
K-562 leukemia = tested on: K-562 leukemia
KM12 colon = tested on: KM12 colon
LOX IMVI melanoma = tested on: LOX IMVI melanoma
M14 melanoma = tested on: M14 melanoma
MALME-3M melanoma = tested on: MALME-3M melanoma
MCF7 breast = tested on: MCF7 breast
MDA-MB-231 breast = tested on: MDA-MB-231 breast
MDA-MB-435 = tested on: MDA-MB-435
MDA-MB-468 breast = tested on: MDA-MB-468 breast
MOLT-4 leukemia = tested on: MOLT-4 leukemia
NCI-H226 lung = tested on: NCI-H226 lung
NCI-H460 lung = tested on: NCI-H460 lung
NCI-H522 lung = tested on: NCI-H522 lung
NCI/ADR-RES ovarian = tested on: NCI/ADR-RES ovarian
OVCAR-3 ovarian = tested on: OVCAR-3 ovarian
OVCAR-4 ovarian = tested on: OVCAR-4 ovarian
OVCAR-5 ovarian = tested on: OVCAR-5 ovarian
OVCAR-8 ovarian = tested on: OVCAR-8 ovarian
PC-3 prostate = tested on: PC-3 prostate
RPMI-8226 leukemia = tested on: RPMI-8226 leukemia
RXF 393 renal = tested on: RXF 393 renal
SF-268 CNS = tested on: SF-268 CNS
SF-295 CNS = tested on: SF-295 CNS
SF-539 CNS = tested on: SF-539 CNS
SK-MEL-2 melanoma = tested on: SK-MEL-2 melanoma
SK-MEL-28 melanoma = tested on: SK-MEL-28 melanoma
SK-MEL-5 melanoma = tested on: SK-MEL-5 melanoma
SK-OV-3 ovarian = tested on: SK-OV-3 ovarian
SN12C renal = tested on: SN12C renal
SNB-19 CNS = tested on: SNB-19 CNS
SNB-75 CNS = tested on: SNB-75 CNS
SR leukemia = tested on: SR leukemia
SW-620 colon = tested on: SW-620 colon
T-47D breast = tested on: T-47D breast
TK-10 renal = tested on: TK-10 renal
U251 CNS = tested on: U251 CNS
UACC-257 melanoma = tested on: UACC-257 melanoma
UACC-62 melanoma = tested on: UACC-62 melanoma
UO-31 renal = tested on: UO-31 renal

**Q.** Which results are given for COc1cc(OC)c(S(=O)(=O)N(CCCl)CCCl)cc1C(=O)/C=C/c1cc(OC)c(OC)c(OC)c1?
**A.** GI50 (786-0 renal): 1950 nM; TGI (786-0 renal): 5.66 µM; GI50 (A498 renal): 2790 nM; TGI (A498 renal): 7.23 µM; GI50 (A549 NSCLC): 3.11 µM; TGI (A549 NSCLC): > 100 µM; GI50 (ACHN renal): 2080 nM; TGI (ACHN renal): 6.16 µM; GI50 (BT-549 breast): 1370 nM; TGI (BT-549 breast): 2920 nM; GI50 (CAKI-1 renal): 2720 nM; TGI (CAKI-1 renal): > 100 µM; GI50 (CCRF-CEM leukemia): 1690 nM; TGI (CCRF-CEM leukemia): > 100 µM; GI50 (COLO 205 colon): 2370 nM; TGI (COLO 205 colon): 4.46 µM; GI50 (DU-145 prostate): 2710 nM; TGI (DU-145 prostate): 14.8 µM; GI50 (HCC-2998 colon): 1970 nM; TGI (HCC-2998 colon): 3.54 µM; GI50 (HCT-116 colon): 1230 nM; TGI (HCT-116 colon): 2820 nM; GI50 (HCT-15 colon): 1120 nM; TGI (HCT-15 colon): 3.98 µM; GI50 (HOP-62 NSCLC): 3.77 µM; TGI (HOP-62 NSCLC): 22.8 µM; GI50 (HOP-92 NSCLC): > 100 µM; TGI (HOP-92 NSCLC): > 100 µM; GI50 (HS 578T breast): 8.55 µM; TGI (HS 578T breast): > 100 µM; GI50 (HT29 colon): 2340 nM; TGI (HT29 colon): 5.92 µM; GI50 (IGROV1 ovarian): 3.09 µM; TGI (IGROV1 ovarian): 9.05 µM; GI50 (K-562 leukemia): 1300 nM; TGI (K-562 leukemia): > 100 µM; GI50 (KM12 colon): 1930 nM; TGI (KM12 colon): 4.26 µM; GI50 (LOX IMVI melanoma): 1440 nM; TGI (LOX IMVI melanoma): 2890 nM; GI50 (M14 melanoma): 2090 nM; TGI (M14 melanoma): 5.45 µM; GI50 (MALME-3M melanoma): 2480 nM; TGI (MALME-3M melanoma): 7.18 µM; GI50 (MCF7 breast): 1010 nM; TGI (MCF7 breast): 4.36 µM; GI50 (MDA-MB-231 breast): 3.95 µM; TGI (MDA-MB-231 breast): > 100 µM; GI50 (MDA-MB-435): 2530 nM; TGI (MDA-MB-435): 7.51 µM; GI50 (MDA-MB-468 breast): 1520 nM; TGI (MDA-MB-468 breast): 3.66 µM; GI50 (MOLT-4 leukemia): 2040 nM; TGI (MOLT-4 leukemia): > 100 µM; GI50 (NCI-H226 lung): 2610 nM; TGI (NCI-H226 lung): 8.95 µM; GI50 (NCI-H460 lung): 1950 nM; TGI (NCI-H460 lung): 5.08 µM; GI50 (NCI-H522 lung): 1660 nM; TGI (NCI-H522 lung): 3.78 µM; GI50 (NCI/ADR-RES ovarian): 2580 nM; TGI (NCI/ADR-RES ovarian): > 100 µM; GI50 (OVCAR-3 ovarian): 2120 nM; TGI (OVCAR-3 ovarian): 6.62 µM; GI50 (OVCAR-4 ovarian): 2780 nM; TGI (OVCAR-4 ovarian): > 100 µM; GI50 (OVCAR-5 ovarian): 2510 nM; TGI (OVCAR-5 ovarian): 6.8 µM; GI50 (OVCAR-8 ovarian): 4.06 µM; TGI (OVCAR-8 ovarian): > 100 µM; GI50 (PC-3 prostate): 3.85 µM; TGI (PC-3 prostate): > 100 µM; GI50 (RPMI-8226 leukemia): 2520 nM; TGI (RPMI-8226 leukemia): > 100 µM; GI50 (RXF 393 renal): 1240 nM; TGI (RXF 393 renal): 2830 nM; GI50 (SF-268 CNS): 2620 nM; TGI (SF-268 CNS): 7.7 µM; GI50 (SF-295 CNS): 2860 nM; TGI (SF-295 CNS): 35.4 µM; GI50 (SF-539 CNS): 1730 nM; TGI (SF-539 CNS): 3.61 µM; GI50 (SK-MEL-2 melanoma): 2060 nM; TGI (SK-MEL-2 melanoma): 4.65 µM; GI50 (SK-MEL-28 melanoma): 1820 nM; TGI (SK-MEL-28 melanoma): 3.54 µM; GI50 (SK-MEL-5 melanoma): 1840 nM; TGI (SK-MEL-5 melanoma): 3.64 µM; GI50 (SK-OV-3 ovarian): 3.47 µM; TGI (SK-OV-3 ovarian): 13 µM; GI50 (SN12C renal): 2260 nM; TGI (SN12C renal): 13 µM; GI50 (SNB-19 CNS): 2370 nM; TGI (SNB-19 CNS): 5.71 µM; GI50 (SNB-75 CNS): 2560 nM; TGI (SNB-75 CNS): 8.53 µM; GI50 (SR leukemia): 993 nM; TGI (SR leukemia): > 100 µM; GI50 (SW-620 colon): 2690 nM; TGI (SW-620 colon): 25.1 µM; GI50 (T-47D breast): 3.53 µM; TGI (T-47D breast): > 100 µM; GI50 (TK-10 renal): 6.09 µM; TGI (TK-10 renal): 75 µM; GI50 (U251 CNS): 1780 nM; TGI (U251 CNS): 3.68 µM; GI50 (UACC-257 melanoma): 1660 nM; TGI (UACC-257 melanoma): 3.89 µM; GI50 (UACC-62 melanoma): 2100 nM; TGI (UACC-62 melanoma): 4.94 µM; GI50 (UO-31 renal): 1540 nM; TGI (UO-31 renal): 2920 nM
